Assay results reported in patent EP3628672A1 (priority 2018, dated 2020).

Columns and labels:
LasB = molecular target: T1, LasB (Pseudomonas aeruginosa, UniProt P14756); assay: Elastin assay to determine % inhibition (Elastin Congo-Red, dialysed culture supernatant); assay type: biochemical, P. aeruginosa PAO1; details: read-out: Elastin hydrolysis % inhibition @ 50 / 25 µM inhibitor concentration
T1 construct: uses as source of enzyme dialysed supernatant from P. aeruginosa PAO1; endogenous in cells; host or cells: P. aeruginosa PAO1 culture supernatant, filtered and dialysed
Protocol: (§1) Experiments were therefore conducted (1) to measure the potency of inhibition of compounds of the invention against purified Pseudomonas aeruginosa LasB enzyme and also experiments were conducted (2) to measure the ability of compounds of the invention to inhibit LasB-catalysed elastin degradation. The first assay uses a commercial fluorescent synthetic peptide and purified LasB enzyme. The LasB hydrolysis kinetics are measured allowing the determination of the IC50 and Ki of the inhibitors; the second is a more physiological assay using dialysed Pseudomonas aeruginosa supernatant as source of enzyme, plus its natural substrate Elastin. It is an "end point assay" that determines the percentage of LasB inhibition by each compound for one particular time point and inhibitor concentration. Technical details are described below:
The Elastin assay uses as source of enzyme dialysed supernatant from P. aeruginosa PAO1 and the Elastin Congo-Red as substrate. The natural LasB substrate, elastin, is complexed with the congo-red dye (Elastin Congo-Red, ECR). The elastolysis activity from the culture supernatant will degrade elastin and release the congo-red dye into the supernatant. This red dye release can be measured with a spectrophotometer.
Method: To determine LasB elastase activity and assess compound inhibition, an overnight culture of P. aeruginosa strain PAO1 is diluted in LB medium. After reaching an OD600nm of 0.6, this culture is diluted and incubated for additional 18-24 hours in a shaking incubator. Culture supernatants are recovered by centrifugation and filtrated through a […] filter. These supernatants are dialysed (filtration molecules < 20kDa) into a 50 mM Tris-HCl pH 7.4, 2.5 mM CaCl2 solution at 4°C under agitation for 24 hours. Supernatant dialysed is then mixed volume/volume with the ECR suspension (20 mg/mL of ECR in 100 mM Tris-HCl pH 7.4 buffer supplemented with 1 mM CaCl2) supplemented with Triton X100 (final concentration of 0.01%) in presence of DMSO (positive control) and/or different concentrations of compound (routinely 50 to 1.56 µM). As a negative control, the dialysed supernatant is replaced by Tris-HCl solution (50 mM Tris-HCl pH 7.4, 2.5 mM CaCl2). The mixed reaction is then incubated overnight in a 37°C shaking incubator. The reaction supernatant is recovered by centrifugation and the release of congo-red is measured by its absorbance at 495 nm (OD495nm).
Percentage inhibition is determined using the following equation: ((OD495nmvalue of positive control−OD495nmvalue of negative control)−(OD495nmvalue of treated supernatant−OD495nmvalue of positive control))/(OD495nmvalue of positive control−OD495nmvalue of negative control) × 100. [formula]

[1] = molecular target: T2, purified LasB protein from P. aeruginosa (Pseudomonas aeruginosa, UniProt P14756); assay: Fluorometric assay to determine Ki (Abz-Ala-Gly-Leu-Ala-p-Nitro-Benzyl-Amide substrate); assay type: biochemical
T2 construct: purchased Merck or Charles River Laboratories
Protocol: as §1
This assay uses commercially available substrate (Abz-Ala-Gly-Leu-Ala-p-Nitro-Benzyl-Amide (Ex: 340 nm, Em: 415 nm) from Peptide International) and purified LasB protein from P. aeruginosa (provided by Merck or Charles River Laboratories). It is performed to determine LasB elastase activity and assess compound inhibition in 96-well plate format. All compounds of Formula (I) were assessed using the method described below.
Method: 10 to 140 ng/ml purified LasB is incubated with 250 µM Abz-Ala-Gly-Leu-Ala-p-Nitro-Benzyl-Amide in 50 mM Tris-HCl pH 7.4, 2.5 mM CaCl2, 0.01% of Triton X100 at 37°C. LasB activity (corresponding to fluorescence emission induced by substrate hydrolysis) is measured over 30 min at 37°C with a fluorescence plate reader such as the Perkin Elmer Envision or similar. Different range of inhibitor concentrations are routinely assessed depending of inhibitor potency from 0.0016 to 200 µM (2-fold dilutions series) in order to determine IC50.
The equation used to calculate the Ki from IC50 is: Ki = IC50 / (1+([S]/Km)) where [S] = 250 µM and Km = 214 µM.

T1 sequence (P14756 198-498): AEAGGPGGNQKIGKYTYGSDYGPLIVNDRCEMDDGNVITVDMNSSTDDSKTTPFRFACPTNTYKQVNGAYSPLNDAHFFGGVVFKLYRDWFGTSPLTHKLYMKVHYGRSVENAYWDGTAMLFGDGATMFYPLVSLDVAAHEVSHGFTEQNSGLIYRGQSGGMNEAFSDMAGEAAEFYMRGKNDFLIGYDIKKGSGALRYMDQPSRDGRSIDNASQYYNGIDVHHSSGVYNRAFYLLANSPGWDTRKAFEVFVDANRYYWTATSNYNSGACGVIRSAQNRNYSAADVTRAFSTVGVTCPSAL
T2 sequence (P14756 198-498): as above

Compound	inhibition at 25 µM (LasB) [%]	Ki [1] [µM]
COc1cc(OCC[N+]2(C)CCOCC2)ccc1-c1csc(CNC(=O)C2(CC(=O)[O-])Cc3ccccc3C2)n1 [Example 67, 2-[2-[[4-[2-methoxy-4-[2-(4-methylmorpholin-4-ium-4-yl)ethoxy]phenyl]thiazol-2-yl]methylcarbamoyl]indan-2-yl] acetate]	60 to 75	0.05 to 0.2
O=C(O)CC1(C(=O)NCc2nc(-c3ccccc3)cs2)Cc2cc(F)c(F)cc2C1 [Example 3, 2-[5,6-difluoro-2-[(4-phenylthiazol-2-yl)methylcarbamoyl]indan-2-yl]acetic acid]	> 75	< 0.05
CN1CCN(C(=O)c2ccc(-c3csc(CNC(=O)C4(CC(=O)O)Cc5ccccc5C4)n3)cc2)CC1 [Example 16, 2-[2-[[4-[4-(4-methylpiperazine-1-carbonyl)phenyl]thiazol-2-yl]methylcarbamoyl]indan-2-yl]acetic acid]	60 to 75	0.2 to 10
COc1ccc(S(=O)(=O)N2CCC(N(C)C)CC2)cc1-c1csc(CNC(=O)C2(CC(=O)O)Cc3cc(F)c(F)cc3C2)n1 [Example 125, 2-[2-[[4-[5-[[4-(dimethylamino)-1-piperidyl]sulfonyl]-2-methoxy-phenyl]thiazol-2-yl]methylcarbamoyl]-5,6-difluoro-indan-2-yl]acetic acid]	10 to 60	0.05 to 0.2
O=C(O)CC1(C(=O)NCc2nc(-c3ccc(OCCN4CCOCC4)cc3)cs2)Cc2ccccc2C1 [Example 49, 2-[2-[[4-[4-(2-morpholinoethoxy)phenyl]thiazol-2-yl]methylcarbamoyl]indan-2-yl]acetic acid]	60 to 75	0.05 to 0.2
C[n+]1ccc(COc2ccc(-c3csc(CNC(=O)C4(CC(=O)[O-])Cc5ccccc5C4)n3)cn2)cc1 [Example 143, 2-[2-[[4-[6-[(1-methylpyridin-1-ium-4-yl)methoxy]-3-pyridyl]thiazol-2-yl]methylcarbamoyl]indan-2-yl]acetate]	10 to 60	0.05 to 0.2
COc1cc(OCC(=O)N2CCN(C)CC2)ccc1-c1csc(CNC(=O)C2(CC(=O)O)Cc3ccccc3C2)n1 [Example 63, 2-[2-[[4-[2-methoxy-4-[2-(4-methylpiperazin-1-yl)-2-oxo-ethoxy]phenyl]thiazol-2-yl]methylcarbamoyl]indan-2-yl]acetic acid]	> 75	0.05 to 0.2
CN(C)C1CN(c2ccc(-c3csc(CNC(=O)C4(CC(=O)O)Cc5ccccc5C4)n3)cn2)C1 [Example 35, 2-[2-[[4-[6-[3-(dimethylamino)azetidin-1-yl]-3-pyridyl]thiazol-2-yl]methylcarbamoyl]indan-2-yl]acetic acid]	60 to 75	0.05 to 0.2
CN1CCC(n2cc(-c3csc(CNC(=O)C4(CC(=O)O)Cc5ccccc5C4)n3)cn2)CC1 [Example 102, 2-[2-[[4-[1-(1-methyl-4-piperidyl)pyrazol-4-yl]thiazol-2-yl]methylcarbamoyl]indan-2-yl]acetic acid]	60 to 75	0.2 to 10
CN1CCN(C(=O)N2CCC(n3cc(-c4csc(CNC(=O)C5(CC(=O)O)Cc6ccccc6C5)n4)cn3)CC2)CC1 [Example 104, 2-[2-[[4-[1-[1-(4-methylpiperazine-1-carbonyl)-4-piperidyl]pyrazol-4-yl]thiazol-2-yl]methylcarbamoyl]indan-2-yl]acetic acid]	60 to 75	0.05 to 0.2
CN1CCC(C(=O)N2CCN(CCCn3cc(-c4csc(CNC(=O)C5(CC(=O)O)Cc6ccccc6C5)n4)cn3)CC2)CC1 [Example 114, 2-[2-[[4-[1-[3-[4-(1-methylpiperidine-4-carbonyl)piperazin-1-yl]propyl]pyrazol-4-yl]thiazol-2-yl]methylcarbamoyl]indan-2-yl]acetic acid]	60 to 75	0.05 to 0.2
O=C(O)CC1(C(=O)NCc2nc(-c3cncnc3)cs2)Cc2ccccc2C1 [Example 94, 2-[2-[(4-pyrimidin-5-ylthiazol-2-yl)methylcarbamoyl]indan-2-yl]acetic acid]	60 to 75	0.2 to 10
COc1ccccc1-c1csc(CNC(=O)C2(CC(=O)O)Cc3ccccc3C2)n1 [Example 146, 2-[2-[[4-(2-methoxyphenyl)thiazol-2-yl]methylcarbamoyl]indan-2-yl]acetic acid]	60 to 75	0.05 to 0.2
COc1cc(OCCC[N+]2(C)CCOCC2)ccc1-c1csc(CNC(=O)C2(CC(=O)[O-])Cc3cc(F)c(F)cc3C2)n1 [Example 70, 2-[5,6-difluoro-2-[[4-[2-methoxy-4-[3-(4-methylmorpholin-4-ium-4-yl)propoxy]phenyl]thiazol-2-yl]methylcarbamoyl]indan-2-yl]acetate]	60 to 75	0.05 to 0.2
COc1cc(OCCN2CCN(C)C(=O)C2)ccc1-c1csc(CNC(=O)C2(CC(=O)O)Cc3ccccc3C2)n1 [Example 83, 2-[2-[[4-[2-methoxy-4-[2-(4-methyl-3-oxo-piperazin-1-yl)ethoxy]phenyl]thiazol-2-yl]methylcarbamoyl]indan-2-yl]acetic acid]	> 75	< 0.05
COc1cc(OCC[N+]2(C)CCN(C)C(=O)C2)ccc1-c1csc(CNC(=O)C2(CC(=O)[O-])Cc3ccccc3C2)n1 (stereo not drawn) [Example 84, 2-[2-[[4-[4-[2-(1,4-dimethyl-3-oxo-piperazin-1-ium-1-yl)ethoxy]-2-methoxy-phenyl]thiazol-2-yl]methylcarbamoyl]indan-2-yl]acetate]	60 to 75	0.05 to 0.2
COc1cc(OCCC[N+](C)(C)C)ccc1-c1csc(CNC(=O)C2(CC(=O)[O-])Cc3cc(F)c(F)cc3C2)n1 [Example 81, 2-[5,6-difluoro-2-[[4-[2-methoxy-4-[3-(trimethylammonio)propoxy]phenyl]thiazol-2-yl]methylcarbamoyl]indan-2-yl] acetate]	60 to 75	0.05 to 0.2
COc1cc(OCCCN2CCCC2)ccc1-c1csc(CNC(=O)C2(CC(=O)O)Cc3cc(F)c(F)cc3C2)n1 [Example 72, 2-[5,6-difluoro-2-[[4-[2-methoxy-4-(3-pyrrolidin-1-ylpropoxy)phenyl]thiazol-2-yl]methylcarbamoyl]indan-2-yl]acetic acid]	10 to 60	< 0.05
CN1CCN(C(=O)Nc2ccc(-c3csc(CNC(=O)C4(CC(=O)O)Cc5ccccc5C4)n3)cc2)CC1 [Example 44, 2-[2-[[4-[4-[(4-methylpiperazine-1-carbonyl)amino]phenyl]thiazol-2-yl]methylcarbamoyl]indan-2-yl]acetic acid]	60 to 75	0.05 to 0.2
C[N+]1(C)CCN(C(=O)COc2ccc(-c3csc(CNC(=O)C4(CC(=O)[O-])Cc5ccccc5C4)n3)cc2)CC1 [Example 47, 2-[2-[[4-[4-[2-(4,4-dimethylpiperazin-4-ium-1-yl)-2-oxo-ethoxy]phenyl]thiazol-2-yl]methylcarbamoyl]indan-2-yl]acetate]	60 to 75	0.2 to 10
COc1cc(N2CCN(C)CC2)ccc1-c1csc(CNC(=O)C2(CC(=O)O)Cc3ccccc3C2)n1 [Example 31, 2-[2-[[4-[2-methoxy-4-(4-methylpiperazin-1-yl)phenyl]thiazol-2-yl]methylcarbamoyl]indan-2-yl]acetic acid]	60 to 75	0.05 to 0.2
